# Results reported in patent publication US6440421B1, “Treatment of bone disorders with adrenomedullin or adrenomedullin agonists” (Auchkland Uniservices Limited, priority 1996, dated 2002).
# No end group written: not given here.
# Columns and labels:
# [1] = system: fetal rat osteoblast-like cells; assay: Osteoblast proliferation assay, cell counts; assay type: cell-based; conditions: for cell number relative to control osteoblasts: primary cultures of osteoblasts, final concentration of 1 nm
# Description: (§1) Osteoblasts were isolated by collagenase digestion from 20-day fetal rat calvariae. The calvariae were then treated twice with phosphate buffered saline (PBS; Gibco, Grand Island, N.Y.) containing 3 Mm […] (EDTA; Sigma Chemical Co., St. Louis, Mo.) for 15 minutes at 37° C. in a shaking water bath. After washing once in PBS, 3 ml of 1 mg/ml collagenase (Sigma Chemical Co.) was added to the calvariae for 10 minutes at 37° C. After discarding the supernatant, the calvariae were treated twice with 2 mg/ml collagenase (30 mins, 37° C.). The supernatants were then centrifuged and the cells washed in Dulbecco's Modified Eagle's Medium (DMEM; Gibco Labs, Grand Island, N.Y.) with 10% fetal calf serum (FCS), suspended in further DMEM/10% FCS, and placed in […] flasks. The cells were incubated under 5% CO2 and 95% air at 37° C.
# (§2) Confluence was reached by 5-6 days, at which time the cells were subcultured. After trypsinization using trypsin-EDTA (0.05%/0.53 […]; Gibco Labs, Grand Island, N.Y.), the cells were rinsed in Minimal Essential Medium (MEM; Gibco Labs) with 10% FCS and resuspended in MEM with 5% FCS, then seeded (10^5 cells/ml) in 24-well plates (0.5 ml cell suspension per well, i.e., 5×10^4 cells/well)
# (§3) Cell proliferation studies (i.e., cell counts and thymidine incorporation) were performed both in actively-growing and growth-arrested cell populations. To produce actively-growing cells, subconfluent populations (24 hrs after subculturing) were changed to fresh MEM which contained 1% FCS and the test compounds. To produce growth-arrested cells, subconfluent populations were changed to serum-free medium with 0.1% bovine serum albumin plus the test compounds.
# The effect of adrenomedullin on proliferation of fetal rat osteoblast-like cells was first assessed by the measurement of cell numbers. Cell counts were analyzed at 6, 24, and 48 hours after addition of the test compound or vehicle. The cell numbers were determined after removing cells from the wells by exposure to trypsin/EDTA (0.05%/0.53 Mm) for 5 minutes at 37° C. Counting was performed in a hemocytometer chamber. Results were expressed per well. […] This stimulation was maintained for at least 48 hours.
# [2] = system: fetal rat osteoblast-like cells; assay: DNA synthesis, [3H]-thymidine incorporation into osteoblasts; assay type: cell-based; conditions: for thymidine incorporation: primary cultures of osteoblasts, 1 nm; for [3H]-thymidine incorporation: 10^−10M, 24 hours
# Description: as §1, §2, §3
# The effect of adrenomedullin on DNA synthesis in osteoblasts was then assessed by the measurement of [^3H]-thymidine incorporation into isolated fetal rat osteoblast-like cells. [^3H]-thymidine incorporation into actively-growing and growth-arrested cells was assessed by pulsing the cells with [^3H]-thymidine (1 μCi/ml) (Amersham, Arlington Heights, Ill.) two hours before the end of the experimental incubation. The experiment was terminated at 6, 24, or 48 hours by washing the cells in MEM with cold thymidine followed by 10% trichloroacetic acid. The precipitate was washed twice with ethanol:ether (3:1), and the wells were desiccated at room temperature. The residue was redissolved in 0.5 M KOH at 85° C. for 30 mins, neutralized with 1 M Hcl, and an aliquot counted for radioactivity. Results were expressed as cpm per well.
# [3] = system: neonatal mouse calvariae; assay: Bone organ culture, [3H]-thymidine incorporation; assay type: cell-based; conditions: 48 hours, 10−7 M to 10^−10 M, same experiments
# Description: (§4) Bone resorption studies were carried out in neonatal mouse calvariae as previously described (Reid, et al., Endocrinology 126:1416-1420 (1990)). Mice were injected subcutaneously with 5 μCi ^45Ca (Amersham) at 2 days of age, and hemi-calvariae were dissected out 4 days later. Hemi-calvariae were pre-incubated for 24 hours in medium 199 (Gibco BRL, Grand Island, N.Y.) with 0.1% bovine serum albumin, then changed to fresh medium containing adrenomedullin or control vehicle. Incubation was continued for a further 48 hours. In the last 4 hours of incubation [^3H]-thymidine was incorporated into the organ cultures as described previously (Lowe, et al., Calif. Tissue Int. 49-394-397 (1991)). There were 5-7 calvariae in each group.
# [4] = system: neonatal mouse calvariae; assay: Bone organ culture, bone resorption (45Ca release); assay type: cell-based; conditions: 48 hours, concentrations of 10−7 M to 10^−10 M
# Description: as §4
# [5] = system: adult mouse calvariae; assay: Local effects on bone histology in vivo, histomorphometry of hemicalvariae
# Description: The local effects of adrenomedullin on bone histology in vivo were assessed in adult mice using a previously described model (Cornish et al., Endocrinology 132:1359-1366, 1993). Sexually mature male ARC Swiss Webster mice aged between 40 and 50 days and weighing […] were given injections (25 μl) over the periosteum of the right hemicalvariae for 5 consecutive days. […] The animals were maintained on a low calcium diet (0.1%) from 5 days prior to the first injection. […] These doses were chosen based on experience with other bone-active peptides in this model. Animals in the control group (n=16) were injected with vehicle (water) only. All animals were sacrificed 1 week following the last injection. The study had the approval of the local institutional review board.
# The calvariae were dissected free of soft tissue, and gross morphology was assessed by examination of the intact calvariae under a dissection microscope. Bone tissue was fixed in 10% phosphate-buffered formalin, dehydrated in a graded series of ethanol solutions and embedded undecalcified in methyl methacrylate resin. Sections (4 μm thick) were cut on a Leitz rotary microtome (Leica Instruments, Nussloch, Germany) using a tungsten-carbide knife, then mounted on gelatin-coated slides and air-dried. The sections were stained with a Goldner tri-chrome stain and examined using an Olympus BX 50 microscope (Olympus Optical Co Ltd, Tokyo, Japan) which was attached to an Osteomeasure Image Analyzer (Osteometrics Inc., Atlanta, Ga.). Histomorphometric analyzes were made of three adjacent fields (using a 20× objective) in each hemicalvaria.
# The parameters assessed are as defined by the American Society for Bone and Mineral Research (Parfitt et al. J. Bone Miner. Res. 2:595-610, (1987)), and are expressed per mm of calvarial length. Osteoblasts were defined as cells immediately adjacent to osteoid. Osteoclast numbers included only multinucleated cells. The various surface estimates were based on measurements of both periosteal and intramembranous surfaces: those eroded by osteoclasts (eroded perimeter), those immediately adjacent to osteoclasts (osteoclast perimeter), and those immediately adjacent to osteoblasts (osteoblast perimeter). The precision of these histomorphometric measurements in these studies (expressed as coefficients of variation of paired. measurements) are as follows: mineralized bone area 1.3%, osteoid area 6.9%, osteoblast perimeter 6.8%, osteoblast number 1.7%, eroded perimeter 6.7%, osteoclast perimeter 7.9%, osteoclast number <1.0%, and calvarial length 0.2%. All measurements were made by one operator who was blinded to the treatment group of each bone.
# In the in vivo experiment, the primary end-point for each histomorphometric index was the determination of whether it was different in the injected right hemicalvaria from the contralateral, uninjected bone of the same animal. The absolute values of each histomorphometric index are presented for the injected and uninjected hemicalvariae by treatment group in Tables 1-3. […] Tables 1-3. Effects of Adrenomedullin on Histomorphometric Indices in Adult Mouse Calvariae in vivo*
# [6] = Injected hemicalvaria, Adrenomedullin 4 × 10^−10 mol, mean, per mm of calvarial length
# [7] = Uninjected hemicalvaria, Adrenomedullin 4 × 10^−10 mol, mean, per mm of calvarial length
# [8] = in the presence of adrenomedullin
substance,measurement,setting,value
"adrenomedullin(27-52) (AHQIYQFTDKDKDNVAPRSKISPQGY-NH2; listed as Homo sapiens) [fragment of adrenomedullin, residues 27-52, carboxyl terminal amidated]",cell number relative to control osteoblasts,[1],statistically significant increase
same,thymidine incorporation,[2],increased
"ADM(28-40) (HQIYQFTDKDKDN; listed as Homo sapiens) [adrenomedullin fragment, residues 28-40]",cell number relative to control osteoblasts,[1],statistically significant increase
same,thymidine incorporation,[2],increased
"ADM(32-52) (QFTDKDKDNVAPRSKISPQGY; listed as Homo sapiens) [adrenomedullin fragment, residues 32-52]",cell number relative to control osteoblasts,[1],statistically significant increase
same,thymidine incorporation,[2],increased
adrenomedullin,duration for which stimulation of cell number was maintained,"[1]; 1% FCS, actively-growing cells",at least 48 hours
same,adrenomedullin concentration at which a significant increase in cell number was observed,"[1]; 24 hours, 1% FCS, actively-growing cells",≥ 10^−12 M
same,increase in actively-growing osteoblasts (cell number),"[1]; 24 hours, medium containing 1% FCS, actively-growing cells",dose-dependent increase
same,[3H]-thymidine incorporation,[3],significantly increased
same,[3H]-thymidine incorporation,[2]; actively-growing cells,significantly stimulated
same,[3H]-thymidine incorporation,[2]; growth-arrested cells,significantly stimulated
same,45Ca release from prelabeled calvariae,[4],no significant change
same,Bone Area,[5]; [6],0.128
same,Eroded Pm,[5]; [6],0.67
same,Number of Obs,[5]; [6],105
same,Number of Ocs,[5]; [6],5.0
same,Ob Perimeter,[5]; [6],0.33
same,Oc Pm,[5]; [6],0.15
same,Osteoid Area,[5]; [6],0.0032
same,Periosteal Area,[5]; [6],0.012
same,Periosteal Area,[5]; P=0.54,not changed
same,Bone Area,[5]; [7],0.114
same,Eroded Pm,[5]; [7],0.67
same,Number of Obs,[5]; [7],61
same,Number of Ocs,[5]; [7],4.4
same,Ob Perimeter,[5]; [7],0.56
same,Oc Pm,[5]; [7],0.12
same,Osteoid Area,[5]; [7],0.0012
same,Periosteal Area,[5]; [7],0.011
same,"indices of osteoblast activity, ratio of injected to uninjected halves of each calvaria","[5]; either dose of adrenomedullin, 5 daily local injections",two- to three-fold increases
same,increase of mineralized bone area,[5]; higher dose of adrenomedullin,13.6%
same,"eroded perimeter, upward trend, ratio of injected to uninjected",[5]; [8],significant
same,"resorption indices, ratio of injected to uninjected",[5]; [8],slight upward trends
